This is an account of results in patent US20200325139A1, “NEW ANTIBIOTICS TARGETING MYCOBACTERIA” (priority 2017, published 2020).

In one test the test system is M. abscessus CIP104536. In words: MIC of amoxicillin in presence or absence of DBOs, microdilution. Type of test: cell-based. Particulars: for Fold reduction in the MIC of amoxicillin: M. abscessus, DBO 15 μM; for MIC of amoxicillin / MIC: M. abscessus CIP104536, DBO at 15 μM, listed as None = amoxicillin alone; for MIC: Mycobacteroides abscessus.
In a further test the target is BlaC (Mycobacterium tuberculosis, UniProt P9WKD3). Description: Carbamoylation of β-lactamase by DBOs, nitrocefin spectrophotometry. Type of test: biochemical. Particulars: for Carbamoylation efficacy of β-lactamase BlaC: 20° C., nitrocefin 100 μM, MES pH 6.4, highest DBO concentration 100 μM.
The subject of another test is BlaMab. The description is as above. Type of test: biochemical, Mycobacterium abscessus. The settings on record: for Carbamoylation efficacy of β-lactamase BlaMab: 20° C., nitrocefin 100 μM, MES pH 6.4.
The next test has as its system Ldtfm. In words: Inhibition of L,D-transpeptidase by DBOs, residual nitrocefin hydrolysis. Particulars: 260 min at 37° C. Type of test: biochemical, E. faecium.
For a further test, the system named is M. tuberculosis H37Rv. In words: microbe, parasite or virus in culture. In kind it is cell-based. The settings on record: for MIC: Mycobacterium tuberculosis, H37RV.
The next test has as its target LdtMt2 (Mycobacterium tuberculosis, UniProt I6Y9J2). Description: Inhibition of L,D-transpeptidase by DBOs, residual nitrocefin hydrolysis. Type of test: biochemical, M. tuberculosis. Particulars: 260 min, Inhibitor/LdtMt2 molar ratio 20 (DBO 200 μM, enzyme 10 μM); 260 min at 37° C.; read-out: Residual activity of LdtMt2 following pre-incubation.
The test system of test [1] is M. abscessus CIP104536 ΔblaMab. In words: microbe, parasite or virus in culture. In kind it is cell-based. The settings on record: for MIC: Mycobacteroides abscessus.
The subject of test [2] is M. tuberculosis H37Rv ΔblaC. In words: microbe, parasite or virus in culture. Particulars: for MIC: Mycobacterium tuberculosis, H37RV. Type of test: cell-based.
Setting [3] is: Inhibitor/Ldtfm molar ratio 1, enzyme 10 μM.
[4] abbreviates: Inhibitor/Ldtfm molar ratio 2.5, enzyme 10 μM.
The mark [5] stands for this setting: Inhibitor/Ldtfm molar ratio 5, enzyme 10 μM.
Where [6] appears, read: Inhibitor/Ldtfm molar ratio 10, enzyme 10 μM.
The mark [7] stands for this setting: Inhibitor/Ldtfm molar ratio 20 (DBO 200 μM, enzyme 10 μM).
The mark [8] stands for this setting: read-out: MIC of amoxicillin against indicated strain.

Where two headings read alike, the source gives them in different places. Where only a bound is given, the exact number is not on record here.

Sequence of LdtMt2 (I6Y9J2 55-408): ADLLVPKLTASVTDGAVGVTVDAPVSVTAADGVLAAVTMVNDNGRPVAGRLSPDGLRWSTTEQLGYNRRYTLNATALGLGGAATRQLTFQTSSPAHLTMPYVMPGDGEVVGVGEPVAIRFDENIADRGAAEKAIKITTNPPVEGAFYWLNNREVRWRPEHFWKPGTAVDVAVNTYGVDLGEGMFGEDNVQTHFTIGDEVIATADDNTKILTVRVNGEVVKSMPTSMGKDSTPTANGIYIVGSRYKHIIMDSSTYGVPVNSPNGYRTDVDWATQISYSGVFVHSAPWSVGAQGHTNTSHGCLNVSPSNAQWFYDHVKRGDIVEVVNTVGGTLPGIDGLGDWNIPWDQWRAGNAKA
Sequence of BlaC (P9WKD3 39-306): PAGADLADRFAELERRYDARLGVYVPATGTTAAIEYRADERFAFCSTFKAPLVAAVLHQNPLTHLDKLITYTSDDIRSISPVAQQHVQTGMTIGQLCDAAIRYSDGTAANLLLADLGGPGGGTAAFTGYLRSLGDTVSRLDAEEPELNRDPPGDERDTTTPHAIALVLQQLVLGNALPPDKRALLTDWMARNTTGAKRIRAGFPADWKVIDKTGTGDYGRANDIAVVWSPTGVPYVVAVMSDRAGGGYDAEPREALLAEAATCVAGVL

Regarding `NC(=O)[C@@H]1CC[C@@H]2CN1C(=O)N2OS(=O)(=O)O` [Avibactam, reference compound], the “Fold reduction in the MIC of amoxicillin” value in the test with M. abscessus CIP104536 and in the test with M. tuberculosis H37Rv was “at least 16 fold” each time. The “Carbamoylation efficacy of β-lactamase BlaC” value at BlaC is “(2.4 ± 0.8) × 10^1 M^−1 s^−1”. At BlaC (nitrocefin as the substrate, tested up to 100 μM), the “Inhibition of the β-lactamase activity of BlaC (in words)” value is given as “poorly inhibited”. Besides, in the test on BlaMab, the “Carbamoylation efficacy of β-lactamase BlaMab” value is recorded as “(1.7 ± 0.1) × 10^5 M^−1 s^−1”. Moreover, the “Inhibition of the β-lactamase activity of BlaMab (in words)” value in the test with BlaMab (nitrocefin as the substrate) is “most efficacious inhibition”. Further, the “Residual activity of Ldtfm following pre-incubation” value (from here on “Residual activity”) in the test with Ldtfm (setting [3]) came out at 66.3%; with Ldtfm (setting [4]) it was 36.4%; in the test with Ldtfm (setting [5]) it was 15.8%; in the test on Ldtfm (setting [6]) it was 3.4%; with Ldtfm (setting [7]) it was 2.4%.
In the case of `O=C1N2C[C@@H](CC[C@H]2Cn2cc(CN3CCOCC3)nn2)N1OS(=O)(=O)[O-].[Na+]` [Compound 1a.i.11], the “Fold reduction in the MIC of amoxicillin” value in the test on M. abscessus CIP104536 and in the test with M. tuberculosis H37Rv was “less active” each time. In addition, the remaining activity at 200 µM at LdtMt2 came to 73.9%. For the same molecule, at BlaC, the “Carbamoylation efficacy of β-lactamase BlaC” value is on record as <5 × 10^0 M^−1 s^−1. The “Carbamoylation efficacy of β-lactamase BlaMab” value in the test with BlaMab is “(4.4 ± 0.2) × 10^3 M^−1 s^−1”. In addition, the “Residual activity” value in the test with Ldtfm (setting [3]) is reported as 92.0%; with Ldtfm (setting [4]) it was 83.9%; in the test with Ldtfm (setting [5]) it was 68.6%; in the test on Ldtfm (setting [6]), 51.8%; in the test with Ldtfm (setting [7]), 28.1%.
As to `COCc1cn(C[C@@H]2CC[C@@H]3CN2C(=O)N3OS(=O)(=O)O)nn1` [Compound 1a.i.13], the remaining activity at 200 µM at LdtMt2 came out at 41.7%.
Turning to `O=C(O)CCc1cn(C[C@@H]2CC[C@@H]3CN2C(=O)N3OS(=O)(=O)O)nn1` [Compound 1a.i.14], the remaining activity at 200 µM at LdtMt2 came to 87.1%.
Same read-out and setting: next, `O=C1N2C[C@@H](CC[C@H]2Cn2cc(-c3ccccc3)nn2)N1OS(=O)(=O)O` [Compound 1a.i.16]: 8.3%.
For the molecule `O=C1N2C[C@@H](CC[C@H]2Cn2cc(-c3cccnc3)nn2)N1OS(=O)(=O)O` [Compound 1a.i], the MIC of amoxicillin in test [1] (Table 1, M. abscessus CIP104536 ΔblaMab, DBO at 15 μM, listed as None = amoxicillin alone) turned out to be 4 mg/L; in the test with M. abscessus CIP104536 (Table 1), 16 mg/L; with M. tuberculosis H37Rv, 16 mg/L; in test [2] it was 1 mg/L. Besides, the “Fold reduction in the MIC of amoxicillin” value with M. abscessus CIP104536 and in the test with M. tuberculosis H37Rv was “activity similar to that of avibactam” in each case. Further, the remaining activity at 200 µM on LdtMt2 was found to be 14.5%. Also, at BlaC, the “Carbamoylation efficacy of β-lactamase BlaC” value is given as <5 × 10^0 M^−1 s^−1. Moreover, in the test with BlaMab, the “Carbamoylation efficacy of β-lactamase BlaMab” value was “(2.2 ± 0.1) × 10^4 M^−1 s^−1”. The “Residual activity” value in the test with Ldtfm (setting [3]) worked out at 88.6%; in the test on Ldtfm (setting [4]), 76.1%; with Ldtfm (setting [5]), 63.6%; in the test on Ldtfm (setting [6]), 34.3%; with Ldtfm (setting [7]), 15.8%.
Consider `C[Si](C)(C)c1cn(C[C@@H]2CC[C@@H]3CN2C(=O)N3OS(=O)(=O)O)nn1` [Compound 2a.i], for which the remaining activity at 200 µM on LdtMt2 turned out to be 72.4%. In addition, on BlaC, the “Carbamoylation efficacy of β-lactamase BlaC” value is on record as <5 × 10^0 M^−1 s^−1. Further, the “Carbamoylation efficacy of β-lactamase BlaMab” value with BlaMab is recorded as “(6.2 ± 0.2) × 10^4 M^−1 s^−1”. Also, the “Residual activity” value with Ldtfm (setting [3]) came out at 88.8%; in the test with Ldtfm (setting [4]) it was 82.7%; in the test on Ldtfm (setting [5]), 68.0%; in the test on Ldtfm (setting [6]) it was 50.7%; in the test on Ldtfm (setting [7]), 27.2%.
On to `CC1(C)S[C@@H]2[C@H](NC(=O)[C@H](N)c3ccc(O)cc3)C(=O)N2[C@H]1C(=O)O` [amoxicillin, reference compound], for which the MIC is 4 mg/L in test [1] (CIP104536, read-out: MIC of amoxicillin); 4 mg/L in test [1] (CIP104536, read-out: MIC of amoxicillin against indicated strain); over 256 mg/L with M. abscessus CIP104536 (Table 1, read-out: MIC of amoxicillin); over 256 mg/L in the test with M. abscessus CIP104536 (Table 2, read-out: MIC of amoxicillin against indicated strain); 128 mg/L with M. tuberculosis H37Rv (read-out: MIC of amoxicillin); 128 mg/L in the test on M. tuberculosis H37Rv (setting [8]). For the same molecule, the MIC in test [2] (read-out: MIC of amoxicillin) and in test [2] (setting [8]) was 1 mg/L in each case. For the same molecule, the MIC of amoxicillin in the test on M. abscessus CIP104536 (Table 1) was over 256 mg/L.
